Legend:
IgG1, IgG2a and IgG2b = assay: Detection of IgG1, IgG2a and IgG2b in mouse sera by ELISA after intramuscular Agrippal and adjuvants; format: in vivo, mice; conditions: for level of IgG1 in sera / level of IgG2a in sera / level of IgG2b in sera: 1, 4 or 8.9 μg Agrippal alone or + 1 μg adjuvant, ELISA; for level of IgG1 when the dose of Agrippal combined to the adjuvant was increased / level of IgG2a when the dose of Agrippal combined to the adjuvant was increased / level of IgG2b when the dose of Agrippal combined to the adjuvant was increased: Agrippal 1 to 8.9 μg + 1 μg adjuvant
Method: Mice were injected at day 0 and day 21 with: • PBS, • 1 μg Agrippal® alone, • 1 μg Agrippal®+1 μg PBS-57 in pegylated form or liposome formulation (PBS-57/S or PBS-57/L) or PBS-14 liposome formulation (PBS-14/L), • 4 μg Agrippal® alone, • 4 μg Agrippal®+1 μg PBS-57/S or PBS-57/L or PBS-14/L, • 8.9 μg Agrippal® alone, or • 8.9 μg Agrippal®+1 μg PBS-57/S or PBS-57/L or PBS-14/L.
Sera were collected at day 42 and the IgG1, IgG2a and IgG2b content of the sera was analysed by ELISA.
Mice were injected at day 0 with: • PBS, • 1 μg Agrippal® alone, • 1 μg Agrippal®+1 μg PBS-57 in pegylated form or liposome formulation (PBS-57/S or PBS-57/L) • 4 μg Agrippal® alone, • 4 μg Agrippal®+1 μg PBS-57/S or PBS-57/L, • 8.9 μg Agrippal® alone, or • 8.9 μg Agrippal®+1 μg PBS-57/S or PBS-57/L.
Sera were collected at day 21 and the IgG1 and IgG2b content of the sera was analysed by ELISA.

[1] = test system: three prototypical strains (A/Brisbane/10/2007, A/Brisbane/59/2007, and B/Florida/4/2006); assay: Indirect hemagglutination assay (IHA) of immunised mice sera, statements not split by strain; format: in vivo; conditions: for IHA titers induced by Fluarix vaccination: mice immunised twice with Fluarix + adjuvant, vs Fluarix alone (Example 3)
Method: (§1) Mice were injected by intramuscular route at day 0 and day 21 with: • NaCl, • 1 μg Fluarix® alone, • 1 μg Fluarix®+1 μg PBS-57/S, or • 1 μg Fluarix®+1 μg PBS-57/L.
(§2) Sera were collected at day 42 and reactivity with the three prototypical strains (A/Brisbane/10/2007, A/Brisbane/59/2007, and B/Florida/4/2006) of Fluarix® vaccine was assayed by measuring IHA titers for each of these strains (see FIG. 7).
(§3) Mice were injected by intramuscular route at day 0 and day 21 with: • nothing (naïve mice), • PBS, • 4 μg Agrippal® alone, • 8.9 μg Agrippal® alone, • 4 μg Agrippal®+1 μg PBS-57 in liposome formulation (PBS-57/L) or PBS-14 liposome formulation (PBS-14/L), or • 8.9 μg Agrippal®+1 μg PBS-57 in PEGylated form (PBS-57/S) or PBS-57/L or PBS-14/L.
(§4) Sera were collected at day 42 and reactivity with the three prototypical strains (H3 A/Brisbane/10/2007, H1 A/Brisbane/59/2007, and B/Florida/4/2006) of Agrippal® vaccine was assayed by measuring IHA titers for each of these strains (see FIG. 8).
Mice were injected by intramuscular route at day 0 with: • NaCl, • PBS-57/D alone, • PBS-57/L alone, • PBS-57/S alone, • 4 μg Agrippal® alone, • 8.9 μg Agrippal® alone, • 4 μg Agrippal®+1 μg PBS-57 in liposome formulation (PBS-57/L) or in pegylated form (PBS-57/S) or in DMSO (PBS-57/D), or • 8.9 μg Agrippal®+1 μg PBS-57/L or PBS-57/S or PBS-57/D.
Sera were collected at day 21 and reactivity with the three prototypical strains (H3 A/Brisbane/10/2007, H1 A/Brisbane/59/2007, and B/Florida/4/2006) of Agrippal® vaccine was assayed by measuring IHA titers for each of these strains (see FIG. 9).
Mice were injected by intramuscular route at day 0 with: • PBS, • 1 μg PBS-57 in DMSO (PBS-57/D) alone • 1 μg PBS-57 in PEGylated form (PBS-57/S) alone, • 1 μg PBS-57 in liposome formulation (PBS-57/L) alone, • 4 μg Agrippal® alone, • 8.9 μg Agrippal® alone, • 4 μg Agrippal®+1 μg PBS-57/D, PBS-57/S or PBS-57/L, or • 8.9 μg Agrippal®+1 μg PBS-57/D, PBS-57/S or PBS-57/L.
(§5) Agrippal® vaccine comprises a mixture of A/Brisbane/10/2007-like, A/Brisbane/59/2007-like, and B/Florida/4/2006-like strains.
Sera were collected at day 21 and reactivity with the three prototypical strains (H3 A/Brisbane/10/2007, H1 A/Brisbane/59/2007, and B/Florida/4/2006) of Agrippal® vaccine was assayed by measuring IHA titers for each of these strains (see FIG. 20).

H3 A/Brisbane/10/2007 = assay: Indirect hemagglutination assay (IHA) of immunised mice sera, strain A/Brisbane/10/2007; format: in vivo; conditions: 1 μg Fluarix + 1 μg adjuvant i.m. day 0 and 21; sera day 42; vs Fluarix alone
Method: as §1
(§6) Fluarix® vaccine comprises a mixture of A/Brisbane/10/2007-like, A/Brisbane/59/2007-like, and B/Florida/4/2006-like strains.
as §2, §3, §5
Sera were collected at day 42 and reactivity with the three prototypical strains (H3 A/Brisbane/10/2007, H1 A/Brisbane/59/2007, and B/Florida/4/2006) of Agrippal® vaccine was assayed by measuring IHA titers for each of these strains (see FIG. 8). […]

H1 A/Brisbane/59/2007 = assay: Indirect hemagglutination assay (IHA) of immunised mice sera, strain A/Brisbane/59/2007; format: in vivo; conditions: 1 μg Fluarix + 1 μg adjuvant i.m. day 0 and 21; sera day 42; vs Fluarix alone
Method: as §1, §6, §2, §3, §5, §4

B/Florida/4/2006 = assay: Indirect hemagglutination assay (IHA) of immunised mice sera, strain B/Florida/4/2006; format: in vivo; conditions: 1 μg Fluarix + 1 μg adjuvant i.m. day 0 and 21; sera day 42; vs Fluarix alone
Method: as §1, §6, §2, §3, §5, §4

[2] = test system: iNKT (Vβ11/Vα24+ cells) from adults PBMC; assay: In vitro iNKT activation, adult PBMC; format: cell-based; conditions: 7 days culture with IL-2, 10 or 100 ng/ml, compared to 100 ng α-GalCer
Method: (§7) Adults PBMC and cord blood mononuclear cells (CBMC) were either non stimulated, or cultured in vitro with IL-2 alone or IL-2 combined with 100 ng α-GalCer or PBS-57/D or PBS-57/L (at 10 ng/ml or 100 ng/ml).
(§8) After 7 days of culture, activation of iNKT was determined by assessing the percentage of Vβ11/Vα24^+ cells amplified from PBMC or CBMC (FIGS. 13 and 14).

[3] = test system: iNKT (Vβ11/Vα24+ cells) from cord blood mononuclear cells (CBMC); assay: In vitro iNKT activation, cord blood mononuclear cells; format: cell-based; conditions: 7 days culture with IL-2, 10 or 100 ng/ml, compared to 100 ng α-GalCer
Method: as §7, §8

[4] = mice injected day 0 and day 21, sera day 42
[5] = two injections (day 0, 21), sera day 42
[6] = mice immunised twice (day 0, 21) with Agrippal + 1 μg adjuvant, sera day 42 (Example 4)
[7] = single injection day 0 of Agrippal + 1 μg adjuvant, sera day 21 (Example 5)
[8] = single injection day 0, sera day 21

Q: How did the “level of IgG1 in sera” value (IgG1, IgG2a and IgG2b; [4]) turn out when CCCCCCCCCCCCCCCCCCCCCCCCCC(=O)N[C@@H](COC1OC(CNC(C)=O)C(O)C(O)C1O)[C@H](O)[C@H](O)CCCCCCCCCCCCCC (stereo partly shown) [PBS-14] was run?
A: increases

Q: What about the “level of IgG2a in sera” value (IgG1, IgG2a and IgG2b; [4]) of the same compound?
A: increases

Q: What about the “level of IgG2b in sera” value (IgG1, IgG2a and IgG2b; [4]) of the same compound?
A: increases

Q: What about the “level of IgG1 when the dose of Agrippal combined to the adjuvant was increased” value (from here on “level of IgG1 … to the adjuvant was increased”) (IgG1, IgG2a and IgG2b; [5]) of the same compound?
A: not significantly further increased

Q: And the “level of IgG2a when the dose of Agrippal combined to the adjuvant was increased” value (IgG1, IgG2a and IgG2b; [5])?
A: not significantly further increased

Q: And the “level of IgG2b when the dose of Agrippal combined to the adjuvant was increased” value (“level of IgG2b … to the adjuvant was increased” below) (IgG1, IgG2a and IgG2b; [5])?
A: not significantly further increased

Q: And the “IHA titers as compared with the Agrippal vaccine alone” value [1, 6]?
A: increased IHA titers

Q: What about the “IHA titers induced by Fluarix vaccination” value [1] of the same compound?
A: same results

Q: What about the “IHA titers as compared with the Agrippal vaccine alone” value [1, 7] of the same compound?
A: increased IHA titers

Q: How did the “level of IgG1 in sera” value (IgG1, IgG2a and IgG2b; [4]) turn out when CCCCCCCC/C=C\CCCCCCCCCCCCCC(=O)N[C@@H](COC1OC(CNC(C)=O)C(O)C(O)C1O)[C@H](O)[C@H](O)CCCCCCCCCCCCCC (stereo partly shown) [PBS-57] was run?
A: increases

Q: What about the “level of IgG2a in sera” value (IgG1, IgG2a and IgG2b; [4]) of the same compound?
A: increases

Q: And the “level of IgG2b in sera” value (IgG1, IgG2a and IgG2b; [4])?
A: increases

Q: What about the “level of IgG1 in sera” value (IgG1, IgG2a and IgG2b; [8]) of the same compound?
A: increases

Q: What about the “level of IgG2b in sera” value (IgG1, IgG2a and IgG2b; [8]) of the same compound?
A: increases

Q: And the “level of IgG1 … to the adjuvant was increased” value (IgG1, IgG2a and IgG2b; [8])?
A: not significantly further increased

Q: And the “level of IgG2b … to the adjuvant was increased” value (IgG1, IgG2a and IgG2b; [8])?
A: not significantly further increased

Q: What about the “level of IgG1 … to the adjuvant was increased” value (IgG1, IgG2a and IgG2b; [5]) of the same compound?
A: not significantly further increased

Q: What about the “level of IgG2a when the dose of Agrippal combined to the adjuvant was increased” value (IgG1, IgG2a and IgG2b; [5]) of the same compound?
A: not significantly further increased

Q: What about the “level of IgG2b … to the adjuvant was increased” value (IgG1, IgG2a and IgG2b; [5]) of the same compound?
A: not significantly further increased

Q: And the “IHA titers induced by Fluarix vaccination against A/Brisbane/10/2007” value (H3 A/Brisbane/10/2007)?
A: significantly enhanced

Q: And the “IHA titers induced by Fluarix vaccination against A/Brisbane/59/2007” value (H1 A/Brisbane/59/2007)?
A: enhanced but to a less significant level

Q: And the “IHA titers induced by Fluarix vaccination against B/Florida/4/2006” value (B/Florida/4/2006)?
A: significantly enhanced

Q: And the “IHA titers as compared with the Agrippal vaccine alone” value [1, 6]?
A: increased IHA titers

Q: And the “IHA titers as compared with the Agrippal vaccine alone” value ([1]; single injection day 0 of 4 or 8.9 μg Agrippal + 1 μg adjuvant, sera day 21 (Example 12))?
A: increased IHA titers

Q: And the “IHA titers as compared with the Agrippal vaccine alone” value [1, 7]?
A: increased IHA titers

Q: What about the “activation of iNKT (percentage of Vβ11/Vα24+ cells amplified)” value [2] of the same compound?
A: stronger activation of iNKT compared to α-GalCer

Q: And the “activation of iNKT (percentage of Vβ11/Vα24+ cells amplified)” value [3]?
A: stronger activation of iNKT compared to α-GalCer

Q: CCCCCCCCCCCCCCCCCCCCCCCC(=O)N[C@@H](COC1OC(CNC(C)=O)C(O)C(O)C1O)[C@H](O)[C@H](O)CCCCCCCCCCCCCC (stereo partly shown) [PBS-96] was tested. Which “IHA titers induced by Fluarix vaccination” value [1] did it give?
A: same results

From patent publication US9220767B2 (priority 2008, dated 2015)
